The results in this text go back to ChEMBL document CHEMBL1201862, “PubChem BioAssay data set” (2004).

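Briefly, cells in 96-well plates were exposed to five compound concentrations for 48 h, and endpoints were estimated by linear interpolation. The concentration for 50% growth inhibition is given as GI50.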 Activity calls are given as the source filed them. Rule as the data show it: active = GI50 up to about 1.1 µM and inactive = higher.

Some test systems named below: 786-0; A498; CAKI-1; HCT-116; HL-60; HOP-62; HT-29; IGROV-1; NCI-H460; NCI-H522; RPMI-8226; RXF 393; SK-MEL-5; SNB-75; TK-10; UACC-62; SR.
Holding throughout (experiment): growth of human tumour cells (NCI), 48 h

In the case of `Cc1cc(N(CCC#N)S(=O)(=O)c2ccccc2)ccc1/C=C1N=C(/C=C/c2ccccc2)OC\1=O`, the GI50 in the assay with 786-0, in the assay on A498, in the assay with CAKI-1, with HCT-116, with HL-60 and with HOP-62 was > 100 µM (inactive) each time. Besides, the GI50 in the assay with HT-29 was > 100 µM (inactive); in the assay with IGROV-1 it was > 100 µM (inactive); in the assay on NCI-H460, > 100 µM (inactive); in the assay with NCI-H522, 67.9 µM (inactive); in the assay with RPMI-8226 it was > 100 µM (inactive); in the assay with RXF 393, > 100 µM (inactive). The GI50 in the assay with SK-MEL-5 is 77.6 µM (inactive); in the assay on SNB-75, > 100 µM (inactive); in the assay with TK-10, > 100 µM (inactive); in the assay with UACC-62, > 100 µM (inactive).
On to `CCCCCCCCCCCCCCCC(=O)OCC1OC(n2cc(F)c(=O)[nH]c2=O)C(NC(=O)N(CCCl)N=O)C(O)C1O` (stereo not drawn), for which the GI50 with 786-0 was 0.166 µM (active); in the assay on A498, 4.44 µM (inactive); in the assay on CAKI-1 it was 4.78 µM (inactive); in the assay with HCT-116, 1.22 µM (inactive); in the assay on HL-60 it was 0.428 µM (active); in the assay with HOP-62, 0.354 µM (active). Besides, the GI50 was 4.68 µM (inactive) with HT-29; 4.43 µM (inactive) in the assay on IGROV-1; 0.152 µM (active) in the assay with NCI-H460; 5.15 µM (inactive) with NCI-H522; 3.06 µM (inactive) in the assay on RPMI-8226; 2.38 µM (inactive) in the assay on RXF 393. In addition, the GI50 was 3.94 µM (inactive) in the assay with SK-MEL-5, 0.228 µM (active) in the assay on SNB-75, 10.1 µM (inactive) with TK-10 and 0.0103 µM (active) with UACC-62.
`COc1cc(-c2cccs2)sc1-c1cccs1`: the GI50 was 39.3 µM (inactive) with 786-0; 28.6 µM (inactive) in the assay on HCT-116; 14.3 µM (inactive) in the assay with HL-60; 20.7 µM (inactive) in the assay on HT-29; 25.5 µM (inactive) with IGROV-1; 26 µM (inactive) in the assay with NCI-H460. The GI50 with NCI-H522 is 31 µM (inactive); with RPMI-8226 it was 52.4 µM (inactive); in the assay on RXF 393, 21.8 µM (inactive); with SK-MEL-5, 29.7 µM (inactive); in the assay with SNB-75 it was 14 µM (inactive); in the assay on SR, 17.7 µM (inactive). Moreover, the GI50 with TK-10 is 41.6 µM (inactive); in the assay with UACC-62, 40.9 µM (inactive).
As to `COc1ccc(/C=C2\C(=O)N(C(=O)c3ccc(NC(C)=O)cc3)N=C2C)cc1OC`, the GI50 with 786-0, in the assay on CAKI-1, in the assay with HCT-116, in the assay on HL-60, in the assay on HOP-62 and with HT-29 was > 100 µM (inactive) throughout. Moreover, the GI50 in the assay on NCI-H460, in the assay with NCI-H522, with RPMI-8226, with SK-MEL-5, in the assay on SNB-75 and with SR was > 100 µM (inactive) in each case. Besides, in the assay with TK-10, the GI50 is > 100 µM (inactive).
As for `O=[N+]([O-])c1nccn1COCCBr`, the GI50 in the assay on 786-0, in the assay on CAKI-1, in the assay with HCT-116, with HL-60, with HOP-62 and with HT-29 was > 100 µM (inactive) each time. Further, the GI50 with NCI-H460, with NCI-H522, in the assay on RPMI-8226, in the assay on SK-MEL-5, in the assay on SNB-75 and in the assay with SR was > 100 µM (inactive) in each case. For the same compound, the GI50 in the assay on TK-10 and in the assay on UACC-62 was > 100 µM (inactive) in each case.
With `CCOC(=O)C1(Cc2ccccc2)CCCCCN1` (stereo not drawn), the GI50 with 786-0, in the assay with CAKI-1, with HL-60, in the assay with HOP-62, in the assay on HT-29 and in the assay with IGROV-1 was > 100 µM (inactive) throughout. The GI50 with NCI-H460 is > 100 µM (inactive); with RXF 393, > 100 µM (inactive); in the assay on SNB-75, 32.8 µM (inactive); in the assay with TK-10 it was > 100 µM (inactive); in the assay with UACC-62, > 100 µM (inactive).
Take `Cc1cccc2c1C(=O)OC2(C)c1cccc2ccccc12` (stereo not drawn): the GI50 is 30.9 µM (inactive) with 786-0; 19.8 µM (inactive) in the assay on CAKI-1; 16.4 µM (inactive) with HL-60; 30.5 µM (inactive) in the assay on HT-29; 29.7 µM (inactive) in the assay on NCI-H460; 16.8 µM (inactive) in the assay with NCI-H522. In addition, the GI50 in the assay on RPMI-8226 was 25.4 µM (inactive); in the assay on RXF 393 it was 22.6 µM (inactive); in the assay with SK-MEL-5, 16.4 µM (inactive); in the assay with SNB-75, 9.71 µM (inactive); in the assay with SR it was 23.2 µM (inactive); in the assay on TK-10, 29.5 µM (inactive).
In the case of `C=CCCCCCCCCC(=O)NS(=O)(=O)c1ccccc1`, the GI50 in the assay on 786-0 was > 100 µM (inactive); in the assay on A498 it was > 100 µM (inactive); with CAKI-1, > 100 µM (inactive); in the assay on HCT-116 it was 93.8 µM (inactive); in the assay on HL-60 it was 44.7 µM (inactive); in the assay with HOP-62, > 100 µM (inactive). In addition, the GI50 is > 100 µM (inactive) in the assay on HT-29; > 100 µM (inactive) in the assay on IGROV-1; > 100 µM (inactive) in the assay with NCI-H460; 55.3 µM (inactive) in the assay on NCI-H522; 35.8 µM (inactive) in the assay on RPMI-8226; > 100 µM (inactive) in the assay with RXF 393. Besides, the GI50 was 92.5 µM (inactive) with SNB-75, > 100 µM (inactive) in the assay with TK-10 and 53.2 µM (inactive) in the assay on UACC-62.
For the compound `CC(C)c1ccccc1NC(=O)/C(Cl)=C1/Sc2ccccc2NC1=O`, the GI50 in the assay on 786-0 was 30.5 µM (inactive); in the assay on A498, 32.6 µM (inactive); in the assay on CAKI-1 it was 17.5 µM (inactive); in the assay with HCT-116, 28.8 µM (inactive); in the assay with HL-60, 21.2 µM (inactive); with HOP-62, 30.8 µM (inactive). The GI50 in the assay with IGROV-1 is 27 µM (inactive); with NCI-H460, 34.5 µM (inactive); in the assay on NCI-H522, 17.9 µM (inactive); in the assay with RPMI-8226, 20.9 µM (inactive); with RXF 393 it was 13.3 µM (inactive); in the assay with SK-MEL-5, 20.6 µM (inactive). Also, the GI50 in the assay with SNB-75 was 22.7 µM (inactive); in the assay with TK-10, 71.9 µM (inactive); with UACC-62 it was 20.3 µM (inactive).
Consider `COc1ccc(C=O)c([N+](=O)[O-])c1`, for which the GI50 is 66.2 µM (inactive) in the assay on 786-0; > 100 µM (inactive) with A498; 4.09 µM (inactive) in the assay with HCT-116; 4.2 µM (inactive) in the assay with HL-60; 40.7 µM (inactive) in the assay on HOP-62; 16.9 µM (inactive) with HT-29. The GI50 in the assay with IGROV-1 is 98.6 µM (inactive); with NCI-H460, 37.5 µM (inactive); in the assay on NCI-H522 it was > 100 µM (inactive); in the assay with RPMI-8226 it was 23.1 µM (inactive); in the assay on RXF 393 it was > 100 µM (inactive); with SK-MEL-5, 17 µM (inactive). Further, the values for the GI50 in the assay on SNB-75, in the assay on TK-10 and in the assay with UACC-62 were 52.1 µM (inactive), 87.7 µM (inactive) and 52.6 µM (inactive), respectively.
As to `CCOC(=O)C1S/C(=N/c2ccc(Cl)cc2C)N=C1C` (stereo not drawn), the GI50 is 15.9 µM (inactive) with 786-0; 37.1 µM (inactive) with A498; 20.7 µM (inactive) in the assay on CAKI-1; 15.1 µM (inactive) in the assay on HCT-116; 4.34 µM (inactive) with HL-60; 24.8 µM (inactive) in the assay on HOP-62. Further, the GI50 was 16.1 µM (inactive) with HT-29; 25.1 µM (inactive) in the assay on IGROV-1; 22 µM (inactive) with NCI-H460; 13.3 µM (inactive) in the assay on NCI-H522; 15.3 µM (inactive) in the assay on RXF 393; 16.2 µM (inactive) in the assay on SK-MEL-5. The values for the GI50 in the assay with SNB-75, in the assay on TK-10 and in the assay with UACC-62 were 23.6 µM (inactive), 24.7 µM (inactive) and 14.1 µM (inactive), respectively.
With `CCCCCCCCCCCCCC(=O)OCC1OC(=O)CC1O` (stereo not drawn), the GI50 in the assay on 786-0 is > 100 µM (inactive); in the assay with A498, > 100 µM (inactive); in the assay with CAKI-1, 43 µM (inactive); in the assay on HCT-116, 44.2 µM (inactive); in the assay on HL-60, 43 µM (inactive); with HOP-62 it was > 100 µM (inactive). Also, the GI50 in the assay on HT-29 is 94.4 µM (inactive); in the assay on IGROV-1, 88.5 µM (inactive); in the assay on NCI-H460, > 100 µM (inactive); with RPMI-8226, 49.8 µM (inactive); with RXF 393, > 100 µM (inactive); with SK-MEL-5, > 100 µM (inactive). Moreover, the GI50 was > 100 µM (inactive) with SNB-75, > 100 µM (inactive) in the assay on TK-10 and 94 µM (inactive) in the assay with UACC-62.
In the case of `COc1ccc(C2Oc3c(cc(O)c(OC)c3C)[C@@H]2C)cc1OC` (stereo partly drawn), the GI50 was > 100 µM (inactive) with 786-0; > 100 µM (inactive) in the assay on A498; 37.2 µM (inactive) with CAKI-1; > 100 µM (inactive) with HCT-116; 50.2 µM (inactive) in the assay with HL-60; > 100 µM (inactive) in the assay on HOP-62. Besides, the GI50 with HT-29 was > 100 µM (inactive); in the assay on IGROV-1, > 100 µM (inactive); in the assay with NCI-H460, > 100 µM (inactive); in the assay with NCI-H522, 34.4 µM (inactive); with RPMI-8226, 4.44 µM (inactive); with RXF 393, 27.7 µM (inactive). Moreover, the GI50 is 31.6 µM (inactive) with SK-MEL-5, 29.7 µM (inactive) in the assay on SNB-75, > 100 µM (inactive) in the assay on TK-10 and 90.2 µM (inactive) in the assay with UACC-62.
For `CC1(CO)OC1COCc1ccccc1` (stereo not drawn), the GI50 in the assay on 786-0, with HL-60, in the assay on HOP-62, in the assay with HT-29, in the assay with IGROV-1 and with NCI-H460 was > 100 µM (inactive) each time. For the same compound, the GI50 in the assay with RPMI-8226, in the assay on RXF 393, in the assay with SNB-75, in the assay with SR and in the assay on UACC-62 was > 100 µM (inactive) throughout.
